Test [1] concerns clot formation in normal anticoagulated plasma. Nature of the test: Prothrombin time (PT) assay, PT converted to INR. It counts as biochemical, human. To be noted: ISI 1.65.
Protocol: The Prothrombin Time (PT) Assay primarily measures the time required for the clot formation in a test sample. Per the assay, the test samples first mixed with normal anticoagulated plasma in a ratio of 1:9 and incubated for 2 minutes at Room temperature. Then tissue thromboplastin with calcium ions is added to the test samples. The samples are then incubated for 2 minutes at 37° C. Tissue thromboplastin and calcium ions is added to normal anticoagulated plasma mixed with formulation, to initiate the clotting mechanism leading to formation of a fibrin clot. The coagulation analyzer is utilized to record the PT required for clot formation. The PT so obtained is then converted to International Normalized Ratio (INR) by utilizing the following formula:
INR=(PTTest Sample/PTControl Level 1)^ISI;
wherein ISI (International Sensitivity Index)—indicates the sensitivity of individual thromboplastin. The value of ISI utilized in the anticoagulant investigations reported herein is 1.65.
If the deficiency exists within coagulation pathway (for example test blood contains heparin or other anticoagulant) the time required for clot formation will be prolonged. Any INR values ≧ that of abnormal plasma level 2 (e.g., TriniCHECK™ Level 2; Trinity Biotech) are considered indicative of deficiency within the coagulation pathway, and thus indicative of highly anticoagulative properties. Any INR values higher than 5.5 are considered indicative of highly anticoagulant behavior. Therefore, the strength of an anticoagulant can be characterized by the INR value, i.e., the larger the INR value the stronger the anticoagulant properties.
Test [2] deals with Pseudomonas aeruginosa (ATCC 27853). Put plainly: Checkerboard titration / micro-dilution antimicrobial synergy evaluation (MIC, FIC). It counts as cell-based. For orientation: In broth dilution the organism is exposed to a series of concentrations in liquid medium.
Protocol: The combinations having an FIC index of ≦0.5 are considered synergistic while a FIC index of >0.5 but ≦1 are considered partially synergistic.
First, potential antimicrobial synergy in a composition having a combination of EDTA and NAC components was investigated with respect to the Pseudomonas aeruginosa (ATCC 27853) microorganism.
According to this method the stock solutions are prepared having a concentration equivalent or higher than twice the MIC of the components among which synergy is to be tested.
As the solutions get turbid, a higher optical density values generated. Generally speaking, increased turbidity, and thus higher optical density readings, are indicative of the presence of micro organisms in the solution. During analysis of the samples, optical density measurements above a predetermined cutoff value is indicative that there are microorganisms present in the solutions or samples, and are thus characterized by positive growth (+), while optical density readings which fall below the cutoff value can be characterized by negative growth (−). A number of the OD measurements were made (OD1, OD2, OD3), and the mean value calculated.

The results in this text go back to patent US20100022652A1, “Antimicrobial and Anticoagulant Compositions and Methods” (Tyco Healthcare Group LP, priority 2008, published 2010).

On to `O=C([O-])CN(CCN(CC(=O)[O-])CC(=O)O)CC(=O)O.[Na+].[Na+]` [DEDTA, disodium EDTA], for which the values for the INR in test [1] (4 wt % DEDTA alone) and in test [1] (at 8 wt %) were 16.7 and > 233, respectively. Also, in test [2], the MIC is reported as 0.25 wt %.

`CC(=O)N[C@@H](CS)C(=O)O` [NAC, N-Acetyl Cysteine]: in test [1] (at 8 wt %), the INR is on record as > 26. The MIC in test [2] was found to be 0.25 wt %.
